Measured values taken from ChEMBL document CHEMBL1125038, “Synthesis and antiinflammatory activity of cis- and trans-6,6a,7,8,9,10,10a,11-octahydro-11-oxodibenzo[b,e]thiepinacetic and -oxepinacetic acids” (J Med Chem, 1990).
Several values for one entry are separate records, joined by “and”; a condition that tells them apart may be missing. Equal values may be shown once.

Columns and labels:
[1] = tested on: Rattus norvegicus; test: Inhibition of carrageenan hind paw edema in rats after oral administration of a dose of 5 mg/kg; format: functional
[2] = tested on: Rattus norvegicus; test: Antiinflammatory activity was determined against rats carrageenan hind paw edema after oral administration; format: functional
[3] = tested on: Rattus norvegicus; test: Antiinflammatory activity was determined against rats carrageenan hind paw edema, after oral administration; ca. 40; format: functional
[4] = The compound was tested for acute toxicity in mice after oral administration; format: organism-based; settings: mouse, in vivo
[5] = tested on: Rattus norvegicus; test: Antiinflammatory activity was determined against rat carrageenan hind paw edema, after oral administration; format: functional
[6] = species: Rattus norvegicus; test: The compound was tested for gastric ulcerogenicity in rats; format: functional, Stomach
[7] = Safety index is the ratio of UD50 to ED50 in carrageenan hind paw edema; format: toxicity; settings: read-out: Safety index
[8] = species: Rattus norvegicus; test: The compound was tested for gastric ulcerogenicity in rats; ca. 8; format: functional, Stomach
[9] = species: Rattus norvegicus; test: Analgesic activity was determined by measuring the dose required to inhibit acetic acid induced writhing; format: functional
[10] = species: Rattus norvegicus; test: The compound was tested for gastric ulcerogenicity in rats; ca. 57; format: functional, Stomach
[11] = Safety index is the ratio of UD50 to ED50 in carrageenan hind paw edema; ca. 25; format: toxicity; settings: read-out: Safety index
[12] = The compound was tested for acute toxicity in mice after oral administration; ca. 200; format: organism-based; settings: mouse, in vivo
[13] = species: Rattus norvegicus; test: The compound was tested for gastric ulcerogenicity in rats; ca. 30; format: functional, Stomach
[14] = Safety index is the ratio of UD50 to ED50 in carrageenan hind paw edema; ca. 20; format: toxicity; settings: read-out: Safety index
[15] = tested on: Rattus norvegicus; test: Antiinflammatory activity was determined against rat carrageenan hind paw edema after oral administration of a dose of 40 mg/kg

Compound	inhibition in vivo at 5 mg/kg [1] [%]	ED50 [2] [mg/kg]	other results
CC(C(=O)OCCc1ccccn1)c1ccc2c(c1)SCC1CCCCC1C2=O (centres undefined)	25.5	–	–
CC(C(=O)N1CCN(C)CC1)c1ccc2c(c1)SCC1CCCCC1C2=O (centres undefined)	5.3	–	–
O=C(O)Cc1ccc2c(c1)C(=O)[C@@H]1CCCC[C@@H]1CS2 (relative stereo)	–	> 40	–
CC(C(=O)O)c1ccc2c(c1)C(=O)[C@H]1CCCC[C@@H]1CS2 (relative stereo)	–	–	ED50 [3]: 40 mg/kg
CC(C(=O)OCc1cccnc1)c1ccc2c(c1)SCC1CCCCC1C2=O (centres undefined)	29.9	–	–
CC(C(=O)O)c1ccc2c(c1)C(=O)[C@@H]1CCCC[C@@H]1CO2 (relative stereo)	–	> 40	–
CC(C(=O)OCc1ccccn1)c1ccc2c(c1)SCC1CCCCC1C2=O (centres undefined)	30.6	–	–
O=C(O)Cc1ccc2c(c1)OC[C@H]1CCCC[C@H]1C2=O (relative stereo)	–	> 40	–
CC(C(=O)OC/C=C/c1ccccc1)c1ccc2c(c1)SCC1CCCCC1C2=O (centres undefined)	20.3	–	–
COC(=O)C(C)c1ccc2c(c1)SCC1CCCCC1C2=O (centres undefined)	21.6	–	–
CC(C)COC(=O)C(C)c1ccc2c(c1)SCC1CCCCC1C2=O (centres undefined)	29.3	–	–
CC(C(=O)OCCc1ccccc1)c1ccc2c(c1)SCC1CCCCC1C2=O (centres undefined)	39.1	–	LD50 [4]: 644 mg/kg; ED50 [5]: 3.53 mg/kg and 1.5 mg/kg; UD50 [6]: >124 mg/kg; selectivity ratio [7]: > 35
CC(C(=O)OCc1ccccc1)c1ccc2c(c1)SCC1CCCCC1C2=O (centres undefined)	25.6	–	–
CC(C(=O)NO)c1ccc2c(c1)SCC1CCCCC1C2=O (centres undefined)	29.9	–	–
COc1ccc2c(c1)c(CC(=O)O)c(C)n2C(=O)c1ccc(Cl)cc1 [INDOMETHACIN]	36.3	3.3	LD50 [4]: 23 mg/kg; UD50 [8]: 8 mg/kg; selectivity ratio [7]: 2.4; ED50 [9]: 0.44 mg/kg
CC(C)OC(=O)C(C)c1ccc2c(c1)SCC1CCCCC1C2=O (centres undefined)	25.6	–	–
CNC(=O)C(C)c1ccc2c(c1)SCC1CCCCC1C2=O (centres undefined)	14.6	–	–
CC(C(=O)OCCN1CCOCC1)c1ccc2c(c1)SCC1CCCCC1C2=O (centres undefined)	22.2	–	–
CCCCCCOC(=O)C(C)c1ccc2c(c1)SCC1CCCCC1C2=O (centres undefined)	28.3	–	–
CC(C(=O)OCCCc1ccccc1)c1ccc2c(c1)SCC1CCCCC1C2=O (centres undefined)	26	–	–
CCCCOC(=O)C(C)c1ccc2c(c1)SCC1CCCCC1C2=O (centres undefined)	26	–	–
O=C(O)Cc1ccc2c(c1)C(=O)[C@H]1CCCC[C@@H]1CS2 (relative stereo)	–	> 40	–
CC(C(=O)NCCO)c1ccc2c(c1)SCC1CCCCC1C2=O (centres undefined)	22.3	–	–
CCOC(=O)C(C)c1ccc2c(c1)SCC1CCCCC1C2=O (centres undefined)	38.3	–	ED50 ([5]; Rattus norvegicus, po, read-out: ED50): 2.24 mg/kg; UD50 [10]: 57 mg/kg; selectivity ratio [11]: 25; ED50 [9]: 0.31 mg/kg
CCCOC(=O)C(C)c1ccc2c(c1)SCC1CCCCC1C2=O (centres undefined)	25.4	–	–
CC(C(=O)O)c1ccc2c(c1)OC[C@H]1CCCC[C@@H]1C2=O (relative stereo)	–	1.52	–

Compound	inhibition in vivo at 5 mg/kg [1] [%]	ED50 [2] [mg/kg]	other results
CC(C(=O)O)c1ccc2c(c1)C(=O)[C@H]1CCCC[C@@H]1CO2 (relative stereo)	–	> 40	–
CC(C(=O)NCc1ccccc1)c1ccc2c(c1)SCC1CCCCC1C2=O (centres undefined)	-5.5	–	–
CC(C(=O)O)c1ccc2c(c1)SC[C@H]1CCCC[C@@H]1C2=O (relative stereo)	–	1.53	LD50 [12]: 200 mg/kg; UD50 [13]: 30 mg/kg; selectivity ratio [14]: 20; ED50 [9]: 0.39 mg/kg
O=C(O)Cc1ccc2c(c1)C(=O)[C@H]1CCCC[C@@H]1CO2 (relative stereo)	–	> 40	–
CC(C(=O)N(C)C)c1ccc2c(c1)SCC1CCCCC1C2=O (centres undefined)	2.7	–	–
CCCCCOC(=O)C(C)c1ccc2c(c1)SCC1CCCCC1C2=O (centres undefined)	22.1	–	–
CC(C(=O)OCCOCCO)c1ccc2c(c1)SCC1CCCCC1C2=O (centres undefined)	28.1	–	–
CC(C(=O)O)c1ccc2c(c1)SC[C@H]1CCCC[C@@H]1C2=O (relative stereo; form 1)	–	–	ED50 [15]: 1.89 mg/kg
CCOC(=O)COC(=O)C(C)c1ccc2c(c1)SCC1CCCCC1C2=O (centres undefined)	20.2	–	–
CC(C(=O)O)c1ccc2c(c1)C(=O)[C@@H]1CCCC[C@@H]1CS2 (relative stereo)	–	> 40	–
CC(C(=O)NCC(=O)O)c1ccc2c(c1)SCC1CCCCC1C2=O (centres undefined)	29.7	–	–
O=C(O)Cc1ccc2c(c1)C(=O)[C@@H]1CCCC[C@@H]1CO2 (relative stereo)	–	> 40	–
CC(C(=O)O)c1ccc2c(c1)SC[C@H]1CCCC[C@H]1C2=O (relative stereo)	–	> 40	–
CC(C(=O)N1CCCCC1)c1ccc2c(c1)SCC1CCCCC1C2=O (centres undefined)	5.3	–	–
O=C(O)Cc1ccc2c(c1)SC[C@H]1CCCC[C@@H]1C2=O (relative stereo)	–	3.24	–
CC(C(=O)OCC(=O)c1ccccc1)c1ccc2c(c1)SCC1CCCCC1C2=O (centres undefined)	26.6	–	–
CC(C(N)=O)c1ccc2c(c1)SCC1CCCCC1C2=O (centres undefined)	30.5	–	–
C=CCOC(=O)C(C)c1ccc2c(c1)SCC1CCCCC1C2=O (centres undefined)	33.5	–	–
CC(C(=O)OC1CCCCC1)c1ccc2c(c1)SCC1CCCCC1C2=O (centres undefined)	15.6	–	–
O=C(O)Cc1ccc2c(c1)OC[C@H]1CCCC[C@@H]1C2=O (relative stereo)	–	22.1	–
CC(C(=O)O)c1ccc2c(c1)SC[C@H]1CCCC[C@@H]1C2=O (relative stereo; form 2)	–	–	ED50 [15]: 37.1 mg/kg
CC(C(=O)N1CCOCC1)c1ccc2c(c1)SCC1CCCCC1C2=O (centres undefined)	7.1	–	–
CC(C(=O)O)c1ccc2c(c1)OC[C@H]1CCCC[C@H]1C2=O (relative stereo)	–	> 40	–
CCOCCOC(=O)C(C)c1ccc2c(c1)SCC1CCCCC1C2=O (centres undefined)	34.6	–	–
O=C(O)Cc1ccc2c(c1)SC[C@H]1CCCC[C@H]1C2=O (relative stereo)	–	> 40	–
CC(C(=O)Oc1ccccc1)c1ccc2c(c1)SCC1CCCCC1C2=O (centres undefined)	22	–	–
